In paper PMC6571673, “Cytostatic and Cytotoxic Natural Products against Cancer Cell Models” (Molecules, 2019):

How the values were obtained:
KOPN-8 [1] = experiment: Annexin V/PI apoptosis flow cytometry assay; assay type: cell-based, human; settings: KOPN-8, 24 h; 8 5 µM, 9 10 µM, 10 5 µM, 12 10 µM, 13 10 µM
Procedure: (§1) The samples were probed with AnnexinV-FITC (Roche/Boehringer Mannheim, Indianapolis, IN, USA) according to the manufacturer’s instructions. KOPN-8 or SUB-P15 cells were plated (1.00 × 10^6 cells/plate) and incubated for 12 h and incubated at 37 °C. Then, cells were treated with compounds or controls for 24 h. Cells were stained with AnnexinV-FITC, PI and the staining profiles were determined with FACScan and Cell-Quest software. For cellular DNA content, the same cell treatment as above was performed. Then, cells were fixed in cold 75% ethanol, treated with RNase and then stained with PI solution (50 µg/mL). Cell cycle distribution was analyzed with the FACSCalibur analyzer (BD Biosciences, Franklin Lakes, NJ, USA) and Cell-Quest software. The percentage of DNA content at different phases of the cell cycle was analyzed with ModFit-software (version 5.0, Verity Software House, Topsham, ME, USA).

SUP-B15 [2] = experiment: Annexin V/PI apoptosis flow cytometry assay; assay type: cell-based, human; settings: SUP-B15, 24 h; 8 5 µM, 9 10 µM, 10 5 µM, 12 10 µM, 13 10 µM
Procedure: as §1

MDA-MB-231 = experiment: Propidium iodide (PI) assay, 48 h; assay type: cell-based, human; settings: MDA-MB-231, 48 h
Procedure: (§4) The first step was to evaluate if the compounds display cytotoxicity against the adherent cells. Propidium iodide (PI) assay was performed for the drug resistant solid tumor cellular models (triple negative breast cancer models: SUM149 and MDA-MB-231) for 48 h (Figure 5) [30, 31].

KOPN-8 [3] = experiment: CTG viability assay (CellTiter-Glo, 72 h); assay type: cell-based; settings: Homo sapiens, mean ± SEM of triplicates
Procedure: (§2) All human cell lines were incubated at 37 °C in a 5% CO2 atmosphere and maintained under sterile conditions. Cells were tested for Mycoplasma (Lonza, Alpharetta, GA, USA) using the manufacturer’s conditions prior to experiments. Cell lines were purchased from American Type Culture Collection (ATCC, Manassas, VA, USA) or Leibniz-Institute Deutsche Sammlung von Mikroorganismen und Zellkulturen GmbH (DSMZ, Braunschweig, Germany) and cultured without antibiotics unless stated. Leukemia cells were cultured in RPMI and supplemented with 10% fetal bovine serum (FBS, Hyclone, Logan, UT, USA). SUP-B15, and KOPN-8 lines were cultured in RPMI supplemented with 10% FBS (Hyclone), 1% GlutaMAX™, 1% Pen/Step, and 0.1% β-mercaptoethanol. BJ cells were cultured in EMEM media supplemented with 10% FBS (Hyclone). Breast cancer cells (MDA-MB-231 & SUM149) were cultured in DMEM and Ham’s F12 respectively, supplemented with 10% FBS, 1% GlutaMAX™, 1% Pen/Step, and 2 µM cortisol/1 µg/mL insulin for SUM149. Both cells were grown to 80% confluence densities as recommended by ATCC. PBMCs were supplemented with concanavalin-A (5 μg/mL) and IL-2 (50 U/ml). To test general cytotoxicity, the following cell numbers were used for 384 well plates: KOPN-8 (ACC 552, infant human B cell precursor acute lymphoblastic leukemia with MLL-MLLt1/ENL fusion, 1000 cells/well), SUP-B15 (ACC389, human B cell precursor acute lymphoblastic leukemia of pediatric second relapse carrying the ALL-variant (m-bcr) of BCR-ABL1 fusion gene (e1-a2), 1600 cells/well), NALM-06 (DSMZ ACC128, non-T/non-B ALL at relapse with P15INK4B and P16INK4A deletions, 1200 cells/well), UoC-B1 (pediatric BCP-ALL at second relapse with TCF3/E2A-HFL fusion, 1000 cells/well), BJ (CRL-2522, normal human foreskin fibroblast cells, 400 cells/well) and PBMCs (periphery blood monocyte cells from healthy donors, IBC#BDC046, 10,000 cells/well).
(§3) Cytotoxicity evaluation was performed using the CellTiter-Glo Luminescent Cell Viability Assay kit (G7570, Promega, Madison, WI, USA), according to the manufacturer’s instructions. Briefly, the cell concentrations used were experimentally determined to ensure logarithmic growth during the 72-h duration of the experiment, and avoid adverse effects on cell growth by DMSO exposure. 1 × 10^3–4.8 × 10^3 or 4 × 10^2–1.2 × 10^3 cells/well were seeded in 96 or 384-well white flat-bottomed plates (3610 or 8804BC, Corning, Corning, NY, USA) in 100 µL or 30 µL/well, respectively. The plates were incubated at 37 °C in 5% CO2 for 24 h before drugging. Test compounds (10 mM in DMSO) in nine 3-fold serial dilutions were dispensed via pintool (Biomek liquid handler, Beckman, Indianapolis, USA) to assay plates. The final concentration of DMSO was 0.3% (v/v) in each well. The positive controls included staurosporine (10 μM), and gambogic acid (10 μM). The plates were incubated for 72 h at 37 °C in 5% CO2, then quenched with CellTiter-Glo® (Promega, Madison, WI, USA, 50 µL/96 or 30 µL/384), centrifuged at 1000 rpm for 1 min and incubated at RT for 20 min. Luminescence was recorded with a plate reader (Envision, Perkin Elmer, Waltham, MA, USA). The mean luminescence of each experimental treatment group was normalized as a percentage of the mean intensity of untreated controls. EC50 values were calculated by Pipeline Pilot software (Accelrys, Enterprise Platform, San Diego, CA, USA).

UoC-B1 = experiment: CTG viability assay (CellTiter-Glo, 72 h); assay type: cell-based; settings: Homo sapiens, mean ± SEM of triplicates
Procedure: as §2, §3

NALM-06 = experiment: CTG viability assay (CellTiter-Glo, 72 h); assay type: cell-based; settings: Homo sapiens, mean ± SEM of triplicates
Procedure: as §2, §3

SUM149 = experiment: Propidium iodide (PI) assay, 48 h; settings: SUM149, 48 h, 3 µM
Procedure: as §4

KOPN-8 [4] = experiment: Cell cycle analysis (PI DNA content, flow cytometry); assay type: cell-based, human; settings: KOPN-8, 24 h; silvestrol 5 µM, 8 5 µM, 9 10 µM, 10 5 µM, 12 10 µM, 13 10 µM
Procedure: as §1

SUP-B15 [5] = experiment: as above; assay type: cell-based, human; settings: SUP-B15, 24 h; silvestrol 5 µM, 8 5 µM, 9 10 µM, 10 5 µM, 12 10 µM, 13 10 µM
Procedure: as §1

Structure (SMILES) | live cells (Annexin-, PI-) (KOPN-8 [1]) | live cells (Annexin-, PI-) (SUP-B15 [2]) | activity in PI assay (MDA-MB-231) | EC50 (KOPN-8 [3]) | EC50 (UoC-B1) | EC50 (NALM-06) | reduction of cell viability (SUM149) | cell cycle effect (KOPN-8 [4]) | cell cycle effect (SUP-B15 [5])
COC1=C[C@]23CCCN2CCc2cc4c(cc2[C@@H]3[C@@H]1O)OCO4 [Compound 9, cephalotaxine] | small decrease in live cells | small decrease in live cells | substantial activity | 23.1 ± 5.2 µM | 17.6 ± 5.8 µM | 9.5 ± 2.7 µM | 50% | no significant cell arrest | no significant cell arrest
COC(=O)C[C@](O)(CCCC(C)(C)O)C(=O)O[C@@H]1C(OC)=C[C@]23CCCN2CCc2cc4c(cc2[C@H]13)OCO4 [Compound 10, homoharringtonine, reference compound] |  |  | substantial activity | 0.0799 ± 0.01 µM | 0.0129 ± 0.002 µM | 0.0322 ± 0.01 µM |  | almost identical to silvestrol | almost identical to silvestrol
